Measured values published in patent US7109193B2, “Tricyclic diazepines tocolytic oxytocin receptor antagonists” (Wyeth, priority 2001, dated 2006).
Counter-ions that a name gives are not always drawn.

Biological target: T1, human oxytocin receptor (Homo sapiens, UniProt P30559)
T1 construct: host or cells: CHO cells (pcDNA3.1 vector)
T1 sequence (P30559 1-389): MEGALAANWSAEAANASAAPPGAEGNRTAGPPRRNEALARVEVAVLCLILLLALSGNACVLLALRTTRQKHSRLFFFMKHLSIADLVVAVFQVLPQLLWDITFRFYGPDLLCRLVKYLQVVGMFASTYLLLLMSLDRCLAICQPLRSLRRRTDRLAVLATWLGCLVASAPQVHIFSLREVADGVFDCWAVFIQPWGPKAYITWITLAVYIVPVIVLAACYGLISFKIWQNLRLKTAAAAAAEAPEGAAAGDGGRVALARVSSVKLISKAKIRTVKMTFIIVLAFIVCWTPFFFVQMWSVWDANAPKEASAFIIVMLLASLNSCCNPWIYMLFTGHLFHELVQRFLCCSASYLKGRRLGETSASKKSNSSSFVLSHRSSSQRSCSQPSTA
Assay: Oxytocin binding in Chinese Hamster Ovary cell membranes expressing human oxytocin receptors
Conditions: CHO cell membranes, [3H]oxytocin; for IC50: values in parentheses, read-out: OT (IC50); for inhibition at 0.1 µM: 100 nM, values without parentheses, read-out: OT % inhibition @ 100% nM

Compound	IC50 [nM]	inhibition at 0.1 µM [%]
COc1ccccc1-c1ccc(C(=O)N2Cc3ccc(C(=O)N(C)CCN(C)C)n3Cc3ccccc32)cc1OC [Example 94, 10-[(2,2′-Dimethoxy[1,1′-biphenyl]-4-yl)carbonyl]-N-[2-(dimethylamino)ethyl]-N-methyl-10,11-dihydro-5H-pyrrolo[2,1-c][1,4]benzodiazepine-3-carboxamide]	–	94
COc1ccccc1-c1ccc(C(=O)N2Cc3ccc(C(=O)N(C)CCN(C)C)n3Cc3ccccc32)cc1C [Example 88, N-[2-(Dimethylamino)ethyl]-10-[(2′-methoxy-2-methyl[1,1′-biphenyl]-4-yl)carbonyl]-N-methyl-10,11-dihydro-5H-pyrrolo[2,1-c][1,4]benzodiazepine-3-carboxamide]	–	98
C=CCN1CCN(C(=O)c2ccc3n2Cc2ccccc2N(C(=O)c2cc(Cl)c(-c4ccccc4C)cc2OC)C3)CC1 [Example 219, (4-Allyl-1-piperazinyl){10-[(6-chloro-3-methoxy-2′-methyl[1,1′-biphenyl]-4-yl)carbonyl]-10,11-dihydro-5H-pyrrolo[2,1-c][1,4]benzodiazepin-3-yl}methanone]	12.1	–
Cc1cc(C(=O)N2Cc3ccc(C(=O)N4CCNCC4)n3Cc3ccccc32)ccc1-c1ccccc1C(F)(F)F [Example 7, 10,11-Dihydro-10-[[2-methyl-2′-trifluoromethyl-[1,1′-biphenyl]-4-yl]carbonyl]-3-(1-piperazinylcarbonyl)-5H-pyrrolo[2,1-c][1,4]benzodiazepine hydrochloride salt]	11.4	–
Cc1cc(C(=O)N2Cc3ccc(C(=O)N4CCN(C)CC4)n3Cc3ccccc32)ccc1-c1ccccc1C(F)(F)F [Example 2, (4-Methyl-piperazin-1-yl)-[10-(2-methyl-2′-trifluoromethyl-[1,1′-biphenyl]-4-yl)-carbonyl]-10,11-dihydro-5H-pyrrolo[2,1-c][1,4]benzodiazepin-3-yl-methanone]	12.5	–
COc1ccccc1-c1ccc(C(=O)N2Cc3ccc(C(=O)N(C)CCCN(C)C)n3Cc3ccccc32)cc1 [Example 103, N-[3-(Dimethylamino)propyl]-10-[(2′-methoxy[1,1′-biphenyl]-4-yl)carbonyl]-N-methyl-10,11-dihydro-5H-pyrrolo[2,1-c][1,4]benzodiazepine-3-carboxamide]	–	98
COc1ccccc1-c1ccc(C(=O)N2Cc3ccc(C(=O)N4CCN(CCN5CCOCC5)CC4)n3Cc3ccccc32)cc1 [Example 207, {10-[(2′-Methoxy[1,1′-biphenyl]-4-yl)carbonyl]-10,11-dihydro-5H-pyrrolo[2,1-c][1,4]benzodiazepin-3-yl}{4-[2-(4-morpholinyl)ethyl]-1-piperazinyl}methanone]	9.5	–
O=C(c1ccc(-c2cccc3ccccc23)nc1)N1Cc2cccn2Cc2ccccc21 [Example 28, [6-(Naphthalen-1-yl)-pyridin-3-yl]-[10,11-dihydro-5H-pyrrolo[2,1-c][1,4]benzodiazepin-10-yl]methanone]	29.5	–
C=CCN1CCN(C(=O)c2ccc3n2Cc2ccccc2N(C(=O)c2ccc(-c4ccccc4C)c(C)c2)C3)CC1 [Example 220, (4-Allyl-1-piperazinyl){10-[(2,2′-dimethyl[1,1′-biphenyl]-4-yl)carbonyl]-10,11-dihydro-5H -pyrrolo[2,1-c][1,4]benzodiazepin-3-yl}methanone]	7.2	–
Cc1ccc(-c2ccc(C(=O)N3Cc4cccn4Cc4ccccc43)cc2)c2ccccc12 [Example 25, [4-(4-Methyl-naphthalen-1-yl)phenyl][10,11-dihydro-5H-pyrrolo[2,1-c][1,4]benzodiazepin-10-yl]methanone]	55.8	–
Cc1cc(C(=O)N2Cc3ccc(C(=O)N4CCCN(C)CC4)n3Cc3ccccc32)ccc1-c1ccccc1C(F)(F)F [Example 59, (4-Methyl-1,4-diazepan-1-yl)(10-{[2-methyl-2′-(trifluoromethyl)[1,1′-biphenyl]-4-yl]carbonyl}-10,11-dihydro-5H-pyrrolo[2,1-c][1,4]benzodiazepin-3-yl)methanone]	16.4	–
Cc1cc(C(=O)N2Cc3ccc(C(=O)N4CCN(CCN(C)C)CC4)n3Cc3ccccc32)ccc1-c1ccccc1C(F)(F)F [Example 196, {4-[2-(Dimethylamino)ethyl]-1-piperazinyl}(10-{[2-methyl-2′-(trifluoromethyl)[1,1′-biphenyl]-4-yl]carbonyl}-10,11-dihydro-5H-pyrrolo[2,1-c][1,4]benzodiazepin-3-yl)methanone]	11.6	–
Cc1ccccc1-c1ccc(C(=O)N2Cc3ccc(C(=O)N(C)CCN(C)C)n3Cc3ccccc32)cc1 [Example 91, N-[2-(Dimethylamino)ethyl]-N-methyl-10-[(2′-methyl[1,1′-biphenyl]-4-yl)carbonyl]-10,11-dihydro-5H-pyrrolo[2,1-c][1,4]benzodiazepine-3-carboxamide]	–	97
O=C(c1ccc(-c2cccc3ccccc23)cc1Cl)N1Cc2cccn2Cc2ccccc21 [Example 24, [2-Chloro-4-(naphthalen-1-yl)phenyl][10,11-dihydro-5H-pyrrolo[2,1-c][1,4]benzodiazepin-10-yl]methanone]	8	–
COc1cc(C(=O)N2Cc3cccn3Cc3ccccc32)ccc1-n1c(C)ccc1C [Example 27, [4-(2,5-Dimethyl-1-H-pyrrol-1-yl)-3-methoxy-phenyl][10,11-dihydro-5H-pyrrolo[2,1-c][1,4]benzodiazepin-10-yl]methanone]	18.1	–
COc1ccccc1-c1ccc(C(=O)N2Cc3ccc(C(=O)N4CCN(C)CC4)n3Cc3ccccc32)cc1 [Example 48, {10-[(2′-Methoxy[1,1′-biphenyl]-4-yl)carbonyl]-10,11-dihydro-5H-pyrrolo[2,1-c][1,4]benzodiazepin-3-yl}(4-methyl-1-piperazinyl)methanone]	6.7	–

The next lines start with the values.

IC50 [nM]	inhibition at 0.1 µM [%]	Compound
2.04	–	COc1cccc(-c2cc(OC)c(C(=O)N3Cc4ccc(C(=O)N(C)CCCN(C)C)n4Cc4ccccc43)cc2Cl)c1 [Example 99, 10-[(6-Chloro-3,3′-dimethoxy[1,1′-biphenyl]-4-yl)carbonyl]-N-[3-(dimethylamino)propyl]-N-methyl-10,11-dihydro-5H-pyrrolo[2,1-c][1,4]benzodiazepine-3-carboxamide]
3.84	–	COc1ccccc1-c1ccc(C(=O)N2Cc3ccc(C(=O)N4CCN(CCN(C)C)CC4)n3Cc3ccccc32)cc1C [Example 195, {4-[2-(Dimethylamino)ethyl]-1-piperazinyl}{10-[(2′-methoxy-2-methyl[1,1′-biphenyl]-4-yl)carbonyl]-10,11-dihydro-5H-pyrrolo[2,1-c][1,4]benzodiazepin-3-yl}methanone]
1.74	–	COc1cc(C(=O)N2Cc3ccc(C(=O)N(C)CCN(C)C)n3Cc3ccccc32)ccc1-c1ccccc1C(F)(F)F [Example 22, N-Methyl-[N-(2-dimethylamino)ethyl]-10-{[2-methoxy-2′-trifluoromethyl-[1,1′-biphenyl]-4-yl]carbonyl}-10,11-dihydro-5H-pyrrolo[2,1-c][1,4]benzodiazepine-3-carboxamide]
4.26	–	COc1cc(-c2ccccc2C)c(Cl)cc1C(=O)N1Cc2ccc(C(=O)N3CC[C@@H](N(C)C)C3)n2Cc2ccccc21 [Example 273, {10-[(6-Chloro-3-methoxy-2′-methyl[1,1′-biphenyl]-4-yl)carbonyl]-10,11-dihydro-5H-pyrrolo[2,1-c][1,4]benzodiazepin-3-yl}[(3R)-3-(dimethylamino)pyrrolidinyl]methanone]
2.31	–	COc1cccc(-c2ccc(C(=O)N3Cc4ccc(C(=O)N5CCC[C@H]5CN5CCCC5)n4Cc4ccccc43)cc2C)c1 [Example 263, {10-[(3′-Methoxy-2-methyl[1,1′-biphenyl]-4-yl)carbonyl]-10,11-dihydro-5H-pyrrolo[2,1-c][1,4]benzodiazepin-3-yl}[(2S)-2-(1-pyrrolidinylmethyl)pyrrolidinyl]methanone]
1.7	–	COc1cc(C(=O)N2Cc3ccc(C(=O)N(C)CCCN(C)C)n3Cc3ccccc32)ccc1-c1ccccc1C(F)(F)F [Example 21, N-Methyl-[N-(3-dimethylamino)propyl]-10-{[2-methoxy-2′-trifluoromethyl-[1,1′-biphenyl]-4-yl]carbonyl}-10,11-dihydro-5H-pyrrolo[2,1-c][1,4]benzodiazepin-3-carboxamide]
2.85	–	Cc1cc(C(=O)N2Cc3ccc(C(=O)N4CCC[C@H]4CN4CCCC4)n3Cc3ccccc32)ccc1-c1ccccc1C(F)(F)F [Example 258, (10-{[2-Methyl-2′-(trifluoromethyl)[1,1′-biphenyl]-4-yl]carbonyl}-10,11-dihydro-5H-pyrrolo[2,1-c][1,4]benzodiazepin-3-yl)[(2S)-2-(1-pyrrolidinylmethyl)pyrrolidinyl]methanone]
1.66	–	COc1cc(-c2ccccc2Cl)c(Cl)cc1C(=O)N1Cc2ccc(C(=O)N(C)C3CCN(C)CC3)n2Cc2ccccc21 [Example 43, 10-[(2′-Chloro-6-chloro-3-methoxy-[1,1′-biphenyl]-4-yl)carbonyl]-N-methyl-N-(1-methylpiperidin-4-yl)-10,11-dihydro-5H-pyrrolo[2,1-c][1,4]benzodiazepine-3-carboxamide]
6.61	–	COc1cc(-c2ccccc2C)c(Cl)cc1C(=O)N1Cc2ccc(C(=O)N3CCN(C)CC3)n2Cc2ccccc21 [Example 47, {10-[(6-Chloro-3-methoxy-2′-methyl[1,1′-biphenyl]-4-yl)carbonyl]-10,11-dihydro-5H-pyrrolo[2,1-c][1,4]benzodiazepin-3-yl}(4-methyl-1-piperazinyl)methanone]
